Laboratory results: patent US11162902B2, “Metasurfaces comprised of nanosphere oligomers with uniform narrow gap spacings, their method of fabrication and applications in sensing” (The Regents of the University of California, priority 2017, dated 2021)
Values after ≈ are worked out from the molar mass of the structure shown.

Key:
P. aeruginosa biofilms = test: Antibiotic susceptibility measurements of surface-attached bacteria / biofilms (live/dead staining, dead cell fraction); assay type: cell-based, Pseudomonas aeruginosa; details: 600 μg·mL^−1 carbenicillin in PBS for 3 h; growth 6, 10, 15, 24 h; FIG. 18E
[1] = system: P. aeruginosa strain PA14; details: cited from earlier work

## CC1(C)S[C@@H]2[C@H](NC(=O)C(C(=O)O)c3ccccc3)C(=O)N2[C@H]1C(=O)O (some centres unmarked) [carbenicillin]
P. aeruginosa biofilms
  antibiotic susceptibility of surface-attached bacteria at different stages of biofilm growth: susceptibility decreased significantly with increasing growth time
[1]
  minimum inhibitory concentration: 128 µg/mL (≈ 338 µM)
